{"source": "patent US20100129434A1", "about": "“COMPOSITIONS AND METHODS FOR THE TREATMENT OF MUCORMYCOSIS AND OTHER FUNGAL DISEASES” (priority 2006, published 2010)", "key": {"rFTR1": {"tested_on": "rFTR1", "assay": "Expression analysis of the high affinity iron permease gene (rFTR1) by RT-PCR", "format": "cell-based, Rhizopus oryzae", "settings": "R. oryzae 99-880 mycelia; 2 mM deferasirox plus 350 μM ferric chloride, 1 h at 37° C.", "protocol": "R. oryzae 99-880 plugs taken from a confluent PDA plate were grown in potato dextrose broth overnight at 37° C. with shaking. Mycelia were collected aseptically and transferred to fresh PDB flasks containing 350 μM ferric chloride (to suppress the expression of rFTR1), 350 μM ferric chloride plus 2 mM deferasirox to test iron chelation, or 2 mM deferasirox plus 6 mM ferric chloride to supersaturate the added deferasirox. The flasks were incubated for 1 h at 37° C. with shaking. Mycelia were collected by filtration and ground in liquid nitrogen using mortar and pestle. Total RNA was extracted using RNeasy Plabt Mini™ kit (Qiagen®) with RLC buffer. The RNA was reverse-transcribed with oligo(dT) primer using the SuperScript™ First-Strand Synthesis System (Invitrogen®) to generate first-strand cDNA. The products were diluted and used in PCR to detect the expression of FTR1 of R. oryzae and 18 s rDNA gene. The sequences of the PCR primers are as follows: sense primer 5′-[…] -3′ and anti-sense primer 5′-[…] -3′ for rFTR1 to amplify of R. oryzae; and sense primer 5′-[…]′T′[…] -3′ and anti-sense primer 5′-[…] -3′ for 18 s rDNA gene. The PCR products were separated on a 2% agarose gel containing 0.1 μg/ml ethidium bromide. Both primer sets were designed to amplify a 400 by bands. […]"}, "R. oryzae": {"tested_on": "R. oryzae", "assay": "Survival of diabetic ketoacidotic (DKA) mice infected with R. oryzae", "format": "in vivo, BALB/c male mice", "settings": "DKA mice; for survival compared to controls: 2.2×10^4 spores R. oryzae 99-892, 1, 3, or 10 mg/kg bid for seven days; for 28 day survival: R. oryzae 99-892", "protocol": "Briefly, for in vivo infection, BALB/c male mice (>20 g) were rendered diabetic with a single i.p. injection of 210 mg/kg streptozotocin in 0.2 ml citrate buffer 10 days prior to fungal challenge. […] Mice were infected through the tail vein with the appropriate inocula of R. oryzae. To confirm the inocula, dilutions were streaked on PDA plates and colonies were counted following a 24 h incubation period at room temperature. The primary efficacy endpoint was time to death. As a secondary endpoint, brain fungal burden (the primary target organ) was determined by homogenization by rolling a pipette on organs placed in Whirl-Pak bags (Nasco, Fort Atkinson, Wis.) containing 2 ml saline. The homogenate was serially diluted in 0.85% saline and then quantitatively cultured on PDA. Values were expressed as log 10 cfu g^−1 tissue. All procedures involving mice were approved by the institutional animal use and care committee, following the National Institutes of Health guidelines for animal housing and care.\nDeferiprone (Apotex Research Inc.) was dissolved in iron-free water and administered intraperitoneally at 50, 100, or 200 mg/kg qd or qod (every other day). Treatment was begun 24 h post infection and continued for a total of 4 doses. Control groups were treated with the diluent, 5% dextrose water.\nDeferiprone is known to form molecular complexes with ferric iron (^3+Fe) in a 1:3 ratio of iron to deferiprone. Based on the known molecular weights of ferric chloride (FeCl3, molecular weight 162.22 g/mol) and deferiprone (molecular weight 139 g/mol), a 60 mg/kg dose of FeCl3 was calculated to result in a significant excess of ^3+Fe vs. a 100 mg/kg dose of deferiprone given to an 18 g mouse: ^3+Fe moles=(0.060 g/kg*0.018 kg [mouse weight]/162.22 g/mol)=6.5×10^−6 mol vs. deferiprone moles=(0.1 g/kg*0.018 kg [mouse weight]/139 g/mol)=1.3×10^−5 mol Ratio=1:2 moles of ^3+Fe to deferiprone, which is more than that required to achieve a saturating 1:3 ratio.\nStatistical analysis was performed using the nonparametric log rank test was used to determine differences in survival times of the mice. Differences in tissue fungal burdens in the infected organs were compared by the nonparametric Steel test for multiple comparisons. P values of <0.05 were considered significant.\nDeferasirox (Novartis Pharmaceuticals, Basel, Switzerland) was suspended in 0.5% hydroxypropylcellulose (Klucel) and administered by oral gavage at 1, 3, or 10 mg/kg […] (qd) or every other day (qod). Treatment was begun 24 h post infection and continued for a total of 5 or 7 doses. Control groups were treated with the diluent, 5% dextrose water and 0.5% Klucel. In some experiments, a saturating dose of free iron was administered with deferasirox. Deferasirox is known to form molecular complexes with ferric iron (^3+Fe) in a 1:2 ratio of iron to deferasirox. Based on the known molecular weights of ferric chloride (FeCl3, molecular weight 162.22 g/mol) and deferasirox (molecular weight 373.4 g/mol), a 2.8 mg/kg dose of FeCl3 was calculated to result in a significant excess of ^3+Fe vs. a 10 mg/kg dose of deferasirox given to an 18 g mouse: ^3+Fe moles=(0.0028 g/kg*0.018 kg [mouse weight]/162.22 g/mol)=3×10^−7 mol vs. deferasirox moles=(0.01 g/kg*0.018 kg [mouse weight]/373.4 g/mol)=5×10^−7 mol Ratio=1:1.7 moles of ^3+Fe to deferasirox, which is more than that required to achieve a saturating 1:2 ratio.\nThe nonparametric log rank test was used to determine differences in survival times of the mice. Differences in tissue fungal burdens, splenic lymphocyte frequencies, and whole organ cytokines in the infected organs were compared by the Mann Whitney U test. P values of <0.05 were considered significant."}}, "note": "Entries after “also recorded” stand apart in the source; their conditions may differ."}
{"smiles": "O=C(O)c1ccc(-n2nc(-c3ccccc3O)nc2-c2ccccc2O)cc1", "note": "[Deferasirox, 4-[3,5-Bis(2-hydroxyphenyl)-1H-1,2,4-triazol-1-yl]-benzoic acid]", "values": [{"measurement": "rFTR1 gene expression (RT-PCR)", "setting": "rFTR1", "result": "expressed; also recorded: induces rFTR1 gene expression"}, {"measurement": "time to death compared to placebo", "setting": "R. oryzae; 1.3×10^3 spores R. oryzae 99-880, 10 mg/kg bid seven days", "result": "significantly improved time to death"}, {"measurement": "survival compared to controls", "setting": "R. oryzae", "result": "significantly improved survival"}, {"measurement": "survival compared to controls", "setting": "R. oryzae; listed as Exjade", "result": "improves survival"}, {"measurement": "survival", "setting": "R. oryzae; R. oryzae 99-880, Deferasirox 10 mg/kg po twice daily, LAmB 15 mg/kg iv once daily 4 doses, or both, placebo 0%", "result": 25, "unit": "%"}, {"measurement": "28 day survival", "setting": "R. oryzae; 1 mg/kg bid oral gavage 7 days, placebo 0%, p=0.03", "result": 29, "unit": "%"}, {"measurement": "28 day survival", "setting": "R. oryzae; 3 mg/kg bid oral gavage 7 days, placebo 0%, p=0.049", "result": 40, "unit": "%"}, {"measurement": "28 day survival", "setting": "R. oryzae; 10 mg/kg bid oral gavage 7 days, placebo 0%, p=0.01", "result": 57, "unit": "%"}, {"measurement": "protective effect on administration of free iron", "setting": "R. oryzae; deferasirox plus saturating ferric chloride", "result": "reversed"}]}
